pIC50: −log10 of the molar value.
Assays:
PDE IV = tested on: T1, PDE IV; test: PDE inhibition, type IV PDE (cAMP substrate); format: biochemical; settings: PDE IV from porcine hearts, cAMP 1 μM; read-out: Inhibition of PDE Isoenzymes (IC50) IV
T1 construct: other: PDE IV from porcine hearts, cAMP 1 μM
Method: (§1) The assays for PDE activity were conducted according to Nicholson et al. method (Br. J. Pharmacol., 97, 889 (1989)).
(§2) Among PDE isozymes, type I, II, III and IV PDEs as used herein were separated from porcine hearts by using an anion exchange chromatography. Type V PDE was also separated from porcine aortae with an anion exchange chromatography and used herein.
(§3) Each PDE isozyme was admixed with ethylene glycol (EG) to adjust the final EG concentration to 30%, then stored at −20° C. and diluted when used. The enzymatic activity for PDE I and V was measured using cGMP as a substrate while that for POE II, III and IV was measured using cAMP.
(§4) [^3H]-cAMP (962 GBq/mmol; Amersham, 25 μl (100,000 cpm)) or [^3H]-cGMP (962 GBq/mmol; Amersham, 25 μl (100,000 cpm)) was added together with each PDE isozyme (25 μl) to an incubation buffer solution with the composition given below to adjust the total volume to 250 μl. Each test compound was dissolved in DMSO to adjust the final concentration to 1% (2.5 μl/tube).
(§5) Incubation buffer solution (pH7.5):
(§6) Tris-HCl (50 mM), magnesium chloride (6 mM), dithiothreitol
(§7) (2.5 mM), 5-nucleotidase (4 μg/ml), bovine serum albumin
(§8) (0.23 mg/ml), and cAMP (1 μM) [or cGMP (1 μM)]
(§9) A mixture of the aforementioned test compound solution and the buffer solution was incubated at 30° C. for 20 minutes. The reaction was quenched by admixing with 1 ml of anion exchange resin slurry (AG1-X8, 200-400 meshes, chloride form; Bio-Rad) to absorb unreacted substrates.
(§10) After the reaction stopped, the mixture was centrifuged at 200×g for 10 minutes, and the resulting supernatant was collected with vials in 250 μl aliquots. To each vial was added 5 ml of ACS-II (scintillator, Amersham). The radioactivity was measured with a liquid scintillator counter for [^3H]-adenosine or [^3H]-guanosine and set as the PDE activity. The measurements were conducted under conditions wherein the enzymatic activity was elevated by adding calmodulin (20 U/ml; Amersham) and calcium chloride (0.1 mM) for PDE-I and cGMP (1 μM) for PDE II, respectively.
(§11) The % inhibition was calculated for test compounds, and IC50 (the concentration of each test compound required for 50% inhibition) was obtained by Probit method. The aforementioned rolipram ((−)-isomer, optical purity: 91% e.e.) known as the PDE IV inhibitor in the prior art was used for the reference compound in this assay.
Further, for a comparison with compounds as disclosed in JP, A, 63-159382 (1988), the PDE-inhibiting activity was also measured for Compounds A and D in Table 1 of JP, A, 63-159382 (1988).

PDE I = test: PDE inhibition, type I PDE (cGMP substrate, calmodulin/CaCl2 added); format: biochemical; settings: PDE I from porcine hearts, cGMP 1 μM; read-out: Inhibition of PDE Isoenzymes (IC50) I
Method: as §1, §2, §3, §4, §5, §6, §7, §8, §9, §10, §11

PDE II = target: T2, PDE II (Sus scrofa, UniProt F1SUV3); test: PDE inhibition, type II PDE (cAMP substrate, cGMP added); format: biochemical; settings: PDE II from porcine hearts, cAMP 1 μM; read-out: Inhibition of PDE Isoenzymes (IC50) II
T2 sequence (F1SUV3 1-945): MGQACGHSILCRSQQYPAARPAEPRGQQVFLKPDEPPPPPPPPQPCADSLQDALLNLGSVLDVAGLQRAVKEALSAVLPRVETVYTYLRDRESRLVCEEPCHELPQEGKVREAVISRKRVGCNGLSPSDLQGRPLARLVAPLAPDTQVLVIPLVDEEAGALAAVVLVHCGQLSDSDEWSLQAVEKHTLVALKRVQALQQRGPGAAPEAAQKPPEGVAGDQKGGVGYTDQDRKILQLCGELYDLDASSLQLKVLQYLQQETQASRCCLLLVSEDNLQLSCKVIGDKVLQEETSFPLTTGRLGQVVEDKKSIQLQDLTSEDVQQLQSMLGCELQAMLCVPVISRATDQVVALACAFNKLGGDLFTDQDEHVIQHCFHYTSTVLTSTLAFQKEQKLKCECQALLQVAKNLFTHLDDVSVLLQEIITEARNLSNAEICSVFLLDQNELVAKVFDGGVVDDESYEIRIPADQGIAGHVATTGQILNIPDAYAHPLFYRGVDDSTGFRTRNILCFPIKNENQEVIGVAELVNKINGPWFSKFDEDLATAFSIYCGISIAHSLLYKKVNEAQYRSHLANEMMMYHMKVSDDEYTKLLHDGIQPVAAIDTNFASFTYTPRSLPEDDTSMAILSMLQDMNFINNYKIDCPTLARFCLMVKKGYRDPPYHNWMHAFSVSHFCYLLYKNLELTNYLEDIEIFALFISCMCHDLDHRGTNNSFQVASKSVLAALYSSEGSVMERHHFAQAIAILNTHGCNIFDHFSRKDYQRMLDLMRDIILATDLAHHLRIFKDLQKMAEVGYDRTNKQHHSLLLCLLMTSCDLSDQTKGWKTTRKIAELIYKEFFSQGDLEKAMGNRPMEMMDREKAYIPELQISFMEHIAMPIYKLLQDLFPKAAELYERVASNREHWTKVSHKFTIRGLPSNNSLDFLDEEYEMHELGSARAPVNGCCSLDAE
Method: as §1, §2, §3, §4, §5, §6, §7, §8, §9, §10, §11

PDE V = target: T3, PDE V (Sus scrofa, UniProt A0A287B475); test: PDE inhibition, type V PDE (cGMP substrate); format: biochemical; settings: PDE V from porcine aortae, cGMP 1 μM; read-out: Inhibition of PDE Isoenzymes (IC50) V
T3 construct: Type V PDE was also separated from porcine aortae with an anion exchange chromatography and used herein
Method: as §1, §2, §3, §4, §5, §6, §7, §8, §9, §10, §11

| Structure (SMILES) | melting point | pIC50 (PDE IV) | pIC50 (PDE I) | pIC50 (PDE II) | pIC50 (PDE V) |
| --- | --- | --- | --- | --- | --- |
| O=c1c(Cc2ccccn2)cc2cccnc2n1-c1cccc([N+](=O)[O-])c1 [Example 1, 1-(3-Nitrophenyl)-3-(pyridin-2-ylmethyl)-1,8-naphthyridin-2(1H)-one] | 229 to 231 °C | – | – | – | – |
| O=c1c(Cc2ccncc2)cc2cccnc2n1-c1cccc([N+](=O)[O-])c1 [Example 4, 1-(3-Nitrophenyl)-3-(pyridin-4-ylmethyl)-1,8-naphthyridin-2(1H)-one] | 230 °C | – | – | – | – |
| O=c1c(CCCc2ccncc2)cc2cccnc2n1-c1cccc(Cl)c1 [Example 9, 1-(3-Chlorophenyl)-3-[3-(pyridin-4-yl)propyl]-1,8-naphthyridin-2(1H)-one] | 148 to 149 °C | – | – | – | – |
| Cc1ccc2cc(CCCc3ccncc3)c(=O)n(-c3cccc([N+](=O)[O-])c3)c2n1 [Example 11, 7-Methyl-1-(3-nitrophenyl)-3-[3-(pyridin-4-yl)propyl]-1,8-naphthyridin-2(1H)-one] | 165 to 166 °C | – | – | – | – |
| CSc1cccc(-n2c(=O)c(CCCc3ccncc3)cc3ccc(C)nc32)c1 [Example 12, 7-Methyl-1-(3-methylthiophenyl)-3-[3-(pyridin-4-yl)propyl]-1,8-naphthyridin-2(1H)-one] | 158 to 159 °C | – | – | – | – |
| O=c1c(CCCCCCCc2ccncc2)cc2cccnc2n1-c1cccc([N+](=O)[O-])c1 [Example 18, 1-(3-Nitrophenyl)-3-[7-(pyridin-4-yl)heptyl]-1,8-naphthyridin-2(1H)-one] | 189 to 192 °C | – | – | – | – |
| O=c1c(CCc2cccs2)cc2cccnc2n1-c1cccc([N+](=O)[O-])c1 [Example 19, 1-(3-Nitrophenyl)-3-[2-(2-thienyl)ethyl]-1,8-naphthyridin-2(1H)-one] | 175 to 176 °C | – | – | – | – |
| O=c1c(CCCc2ccco2)cc2cccnc2n1-c1cccc([N+](=O)[O-])c1 [Example 20, 1-(3-Nitrophenyl)-3-[3-(2-furyl)propyl]-1,8-naphthyridin-2(1H)-one] | 166 to 167 °C | – | – | – | – |

The remaining lines, values ahead:

| melting point | pIC50 (PDE IV) | pIC50 (PDE I) | pIC50 (PDE II) | pIC50 (PDE V) | Structure (SMILES) |
| --- | --- | --- | --- | --- | --- |
| 185 to 186 °C | – | – | – | – | O=c1c(CCCc2ccoc2)cc2cccnc2n1-c1cccc([N+](=O)[O-])c1 [Example 21, 1-(3-Nitrophenyl)-3-[3-(3-furyl)propyl]-1,8-naphthyridin-2(1H)-one] |
| 167.5 to 169.5 °C | – | – | – | – | O=c1c(CCCCc2nc3ccccc3s2)cc2cccnc2n1-c1cccc([N+](=O)[O-])c1 [Example 22, 1-(3-Nitrophenyl)-3-[4-(benzothiazol-2-yl)butyl]-1,8-naphthyridin-2(1H)-one] |
| 202 to 203.5 °C | – | – | – | – | N#Cc1cccc(-n2c(=O)c(CCCc3ccncc3)cc3cccnc32)c1 [Example 25, 1-(3-Cyanophenyl)-3-[3-(pyridin-4-yl)propyl]-1,8-naphthyridin-2(1H)-one] |
| 127 to 131 °C | – | – | – | – | CS(=O)(=O)c1cccc(-n2c(=O)c(CCCc3ccncc3)cc3cccnc32)c1 [Example 26, 1-(3-Methylsulfonylphenyl)-3-[3-(pyridin-4-yl)propyl]-1,8-naphthyridin-2(1H)-one] |
| 201 to 202 °C | – | – | – | – | O=c1c(CCCc2ccccn2)cc2cccnc2n1-c1cccc([N+](=O)[O-])c1 [Example 28, 1-(3-Nitrophenyl)-3-[3-(pyridin-2-yl)propyl]-1,8-naphthyridin-2(1H)-one] |
| 178 to 179 °C | – | – | – | – | O=c1c(CCc2nc3ccccc3s2)cc2cccnc2n1-c1cccc([N+](=O)[O-])c1 [Example 29, 1-(3-Nitrophenyl)-3-[2-(benzothiazol-2-yl)ethyl]-1,8-naphthyridin-2(1H)-one] |
| 185 to 186 °C | – | – | – | – | O=c1c(CCCc2nc3ccccc3s2)cc2cccnc2n1-c1cccc([N+](=O)[O-])c1 [Example 30, 1-(3-Nitrophenyl)-3-[3-(benzothiazol-2-yl)propyl]-1,8-naphthyridin-2(1H)-one] |
| 198 to 199 °C | – | – | – | – | O=c1c(CCCc2nccs2)cc2cccnc2n1-c1cccc([N+](=O)[O-])c1 [Example 31, 1-(3-Nitrophenyl)-3-[3-(thiazol-2-yl)propyl]-1,8-naphthyridin-2(1H)-one] |
| 229 to 230 °C | 5.92 | < 4.00 | < 4.00 | 5.41 | N#Cc1cccc(-n2c(=O)c(Cc3ccncc3)cc3cccnc32)c1 [Example No. 3, 1-(3-Cyanophenyl)-3-(pyridin-4-ylmethyl)-1,8-naphthyridin-2(1H)-one] |
| 163 to 165 °C | 5.92 | 4.21 | 4.22 | 4.89 | O=c1c(CCCCc2ccccn2)cc2cccnc2n1-c1cccc([N+](=O)[O-])c1 [Example No. 13, 1-(3-Nitrophenyl)-3-[4-(pyridin-2-yl)butyl]-1,8-naphthyridin-2(1H)-one] |
| 168.8 to 169.6 °C | 5.85 | 4.00 | 4.33 | 5.06 | O=c1c(CCCCc2ccncc2)cc2cccnc2n1-c1cccc([N+](=O)[O-])c1 [Example No. 15, 1-(3-Nitrophenyl)-3-[4-(pyridin-4-yl)butyl]-1,8-naphthyridin-2(1H)-one] |
| 188.8 to 189.6 °C | 5.66 | < 4.00 | < 4.00 | < 4.00 | O=c1c(CCCCCc2ccncc2)cc2cccnc2n1-c1cccc([N+](=O)[O-])c1 [Example No. 17, 1-(3-Nitrophenyl)-3-[5-(pyridin-4-yl)pentyl]-1,8-naphthyridin-2(1H )-one] |

— patent US6642250B2, “1,8-naphthyridin-2(1H)-one derivatives” (Grelan Pharmaceutical Co., Ltd., priority 1999, dated 2003)
